Laboratory results from US10508085B2, “Compounds and methods for IDO and TDO modulation, and indications therefor” (Plexxikon Inc., priority 2016, dated 2019).

What was measured:
[1] = target: T1, Human Indoleamine 2,3-dioxygenase (IDO) (Homo sapiens, UniProt P14902); test: Human IDO enzymatic assay (kynurenine level); format: biochemical; conditions: 6 nM IDO, 10 μM L-Trp; geometric mean; read-out: IDO1 GMean: IC50 (μM) (Biochemical Assay)
T1 construct: His tag (N); made in house; host or cells: E. coli
T1 sequence (P14902 whole entry): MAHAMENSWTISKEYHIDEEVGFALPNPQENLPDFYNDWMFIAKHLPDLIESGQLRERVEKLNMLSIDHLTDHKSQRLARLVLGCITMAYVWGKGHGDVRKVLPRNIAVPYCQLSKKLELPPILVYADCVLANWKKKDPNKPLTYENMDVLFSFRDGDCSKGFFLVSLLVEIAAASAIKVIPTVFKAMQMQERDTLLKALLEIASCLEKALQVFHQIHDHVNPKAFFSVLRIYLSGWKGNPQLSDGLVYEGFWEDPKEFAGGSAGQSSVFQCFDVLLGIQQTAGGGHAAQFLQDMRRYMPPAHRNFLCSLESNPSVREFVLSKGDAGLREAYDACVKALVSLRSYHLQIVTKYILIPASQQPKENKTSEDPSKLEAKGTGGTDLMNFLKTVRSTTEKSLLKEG
In short: (§1)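 Reactions were stopped with TCA, converting N-formylkynurenine to kynurenine for quantitation, with IC50 by nonlinear regression. IDO: 6 nM enzyme, 10 μM L-Trp, 20 min RT. TDO: 1 nM enzyme, 350 μM L-Trp, 70 min RT, both in pH 6.5 buffer.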

[2] = target: T2, Human Tryptophan 2,3-dioxygenase (TDO) (Homo sapiens, UniProt P48775); test: Human TDO enzymatic assay (kynurenine level); format: biochemical; conditions: 1 nM TDO, 350 μM L-Trp; geometric mean; read-out: TDO GMean: IC50 (μM) (Biochemical Assay)
T2 construct: His tag (N); made in house; host or cells: E. coli
T2 sequence (P48775 whole entry): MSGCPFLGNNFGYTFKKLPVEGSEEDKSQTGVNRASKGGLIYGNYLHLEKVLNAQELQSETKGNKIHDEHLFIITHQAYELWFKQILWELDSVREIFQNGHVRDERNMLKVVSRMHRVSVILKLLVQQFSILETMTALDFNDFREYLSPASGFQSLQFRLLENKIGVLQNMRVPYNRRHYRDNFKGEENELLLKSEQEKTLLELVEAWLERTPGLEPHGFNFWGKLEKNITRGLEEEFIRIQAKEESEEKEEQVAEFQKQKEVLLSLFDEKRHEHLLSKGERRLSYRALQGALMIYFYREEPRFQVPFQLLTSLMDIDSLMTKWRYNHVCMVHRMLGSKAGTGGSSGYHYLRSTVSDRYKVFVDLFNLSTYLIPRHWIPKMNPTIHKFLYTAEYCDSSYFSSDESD
In short: as §1

[3] = target: T3, human IDO (IDO1-expressing HEK293 cells) (Homo sapiens, UniProt P14902); test: Cell based kynurenine assay, IDO1-expressing HEK293 cell clones; conditions: IDO1-expressing HEK293 cells, 24 hours, geometric mean; read-out: HEK293 IDO1 Kynurenine GMean IC50 (μM) (Cellular Assay)
T3 construct: expressed in transfected cells
T3 sequence (P14902 whole entry): as the sequence (P14902 whole entry) above
In short: (§2)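 Kynurenine in culture supernatant read after 24 h compound exposure of HEK293 cells stably expressing human IDO1 or TDO. IC50 from nonlinear regression of % inhibition relative to 0.2% DMSO cell (high) and media-only (low) controls.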

[4] = target: T4, human TDO (TDO-expressing HEK293 cells) (Homo sapiens, UniProt P48775); test: Cell based kynurenine assay, TDO-expressing HEK293 cell clones; conditions: TDO-expressing HEK293 cells, 24 hours, geometric mean; read-out: HEK293 TDO Kynurenine GMean IC50 (μM) (Cellular Assay)
T4 construct: expressed in transfected cells
T4 sequence (P48775 whole entry): as the sequence (P48775 whole entry) above
In short: as §2

Row | IC50 [1] [µM] | IC50 [2] [µM] | IC50 [3] [µM] | IC50 [4] [µM] | SMILES
1 | 0.0001 to 10 | 0.0001 to 10 | 0.0001 to 10 | 0.0001 to 10 | CC(C)(C(O)c1cc(Cl)cc2cn[nH]c12)[C@H]1C[C@H]2CC[C@@H](C1)N2C(=O)NC1CC1 (stereo partly drawn) [Compound P-0439, (1R,3r,5S)-3-(1-(5-chloro-1H-indazol-7-yl)-1-hydroxy-2-methylpropan-2-yl)-N-cyclopropyl-8-azabicyclo [3.2.1]octane-8-carboxamide]
2 | 0.0001 to 10 | 0.0001 to 10 | 0.0001 to 10 | 0.0001 to 10 | CC(C)(C(O)c1cc(Cl)cc2cn[nH]c12)[C@H]1C[C@H]2CC[C@@H](C1)N2C(=O)Nc1ccc(F)cc1 (stereo partly drawn) [Compound P-0440, (1R,3r,5S)-3-(1-(5-chloro-1H-indazol-7-yl)-1-hydroxy-2-methylpropan-2-yl)-N-(4-fluorophenyl)-8-azabicyclo[3.2.1] octane-8-carboxamide]
3 | 0.0001 to 10 | 0.0001 to 10 | 0.0001 to 10 | 0.0001 to 10 | CC(C)(C1CCN(C(=O)CN2CCOCC2)CC1)C(O)c1cc(Cl)cc2cn[nH]c12 (centres unmarked) [Compound P-0441, 1-(4-(1-(5-chloro-1H-indazol-7-yl)-1-hydroxy-2-methylpropan-2-yl)piperidin-1-yl)-2-morpholinoethan-1-one]
4 | 0.0001 to 10 | 0.0001 to 10 | 0.0001 to 10 | 0.0001 to 10 | CNC(=O)N1[C@@H]2CC[C@H]1C[C@@H](C(C)(C)C(O)c1cc(Cl)cc3cn[nH]c13)C2 (stereo partly drawn) [Compound P-0442, (1R,3r,5S)-3-(1-(5-chloro-1H-indazol-7-yl)-1-hydroxy-2-methylpropan-2-yl)-N-methyl-8-azabicyclo[3.2.1] octane-8-carboxamide]
5 | 0.0001 to 10 | 0.0001 to 10 | 0.0001 to 10 | 0.0001 to 10 | CC(C)(C1CCN(C(=O)CC2CCOCC2)CC1)C(O)c1cc(Cl)cc2cn[nH]c12 (centres unmarked) [Compound P-0443, 1-(4-(1-(5-chloro-1H-indazol-7-yl)-1-hydroxy-2-methylpropan-2-yl)piperidin-1-yl)-2-(tetrahydro-2H-pyran-4-yl)ethan-1-one]
6 | 0.0001 to 10 | 0.0001 to 10 | 0.0001 to 10 | 0.0001 to 10 | CCC(=O)N1CCC(C(C)(C)[C@H](O)c2cc(Cl)cc3cn[nH]c23)CC1 [Compound P-0444, (S)-1-(4-(1-(5-chloro-1H-indazol-7-yl)-1-hydroxy-2-methylpropan-2-yl)piperidin-1-yl)propan-l-one]
7 | 0.0001 to 10 | 0.0001 to 10 | 0.0001 to 10 | 0.0001 to 10 | CNC(=O)N1CCC(C(C)(C)[C@H](O)c2cc(Cl)cc3cn[nH]c23)CC1 [Compound P-0445, (S)-4-(1-(5-chloro-1H-indazol-7-yl)-1-hydroxy-2-methylpropan-2-yl)-N-methylpiperidine-1-carboxamide]
8 | 0.0001 to 10 | 0.0001 to 10 | 0.0001 to 10 | 0.0001 to 10 | COCCNC(=O)N1CCC(C(C)(C)[C@H](O)c2cc(Cl)cc3cn[nH]c23)CC1 [Compound P-0446, (S)-4-(1-(5-chloro-1H-indazol-7-yl)-1-hydroxy-2-methylpropan-2-yl)-N-(2-methoxyethyl) piperidine-1-carboxamide]
9 | 0.0001 to 10 | 0.0001 to 10 | 0.0001 to 10 | 0.0001 to 10 | CC(C)(C1CCN(C(=O)Nc2ccc(C#N)cc2)CC1)[C@H](O)c1cc(Cl)cc2cn[nH]c12 [Compound P-0447, (S)-4-(1-(5-chloro-1H-indazol-7-yl)-1-hydroxy-2-methylpropan-2-yl)-N-(4-cyanophenyl) piperidine-1-carboxamide]
10 | 0.0001 to 10 | 0.0001 to 10 | 0.0001 to 10 | 0.0001 to 10 | CC(C)(C1CCN(C(=O)CC2CCS(=O)(=O)CC2)CC1)C(O)c1cc(Cl)cc2cn[nH]c12 (stereo not drawn) [Compound P-0448, 1-(4-(1-(5-chloro-1H-indazol-7-yl)-1-hydroxy-2-methylpropan-2-yl)piperidin-l-yl)-2-(1,1-dioxidotetrahydro-2H-thiopyran-4-yl)ethan-1-one]
11 | 0.0001 to 10 | 0.0001 to 10 | 0.0001 to 10 | 0.0001 to 10 | CC(C)(C1CCN(C(=O)N[C@H]2CC[C@H](C)CC2)CC1)C(O)c1cc(Cl)cc2cn[nH]c12 (some centres unmarked) [Compound P-0449, 4-(1-(5-chloro-1H-indazol-7-yl)-1-hydroxy-2-methylpropan-2-yl)-N-((1r,4r)-4-methylcyclohexyl) piperidine-1-carboxamide]
12 | 0.0001 to 10 | 0.0001 to 10 | 0.0001 to 10 | 0.0001 to 10 | CC(C)(C1CCN(C(=O)NC2CCN(S(C)(=O)=O)CC2)CC1)C(O)c1cc(Cl)cc2cn[nH]c12 (centres unmarked) [Compound P-0450, 4-(1-(5-chloro-1H-indazol-7-yl)-1-hydroxy-2-methylpropan-2-yl)-N-(1-(methylsulfonyl)piperidin-4-yl)piperidine-1-carboxamide]
13 | 0.0001 to 10 | 0.0001 to 10 | 0.0001 to 10 | 0.0001 to 10 | CC(C)(C1CCN(C(=O)NC2CCOCC2)CC1)C(O)c1cc(Cl)cc2cn[nH]c12 (centres unmarked) [Compound P-0451, 4-(1-(5-chloro-1H-indazol-7-yl)-1-hydroxy-2-methylpropan-2-yl)-N-(tetrahydro-2H-pyran-4-yl)piperidine-1-carboxamide]
14 | 0.0001 to 10 | 0.0001 to 10 | 0.0001 to 10 | 0.0001 to 10 | CC(C)(C1CCN(C(=O)NCCS(C)(=O)=O)CC1)C(O)c1cc(Cl)cc2cn[nH]c12 (centres unmarked) [Compound P-0452, 4-(1-(5-chloro-1H-indazol-7-yl)-1-hydroxy-2-methylpropan-2-yl)-N-(2-(methylsulfonyl)ethyl)piperidine-1-carboxamide]
15 | 0.0001 to 10 | 0.0001 to 10 | > 10 | > 10 | CC(C)(C1CCN(C(=O)NC2CCNCC2)CC1)C(O)c1cc(Cl)cc2cn[nH]c12 (centres unmarked) [Compound P-0453, 4-(1-(5-chloro-1H-indazol-7-yl)-1-hydroxy-2-methylpropan-2-yl)-N-(piperidin-4-yl)piperidine-1-carboxamide]
16 | 0.0001 to 10 | 0.0001 to 10 | 0.0001 to 10 | 0.0001 to 10 | CC(C)(C1CCN(C(=O)CC#N)CC1)C(O)c1cc(Cl)cc2cn[nH]c12 (centres unmarked) [Compound P-0454, 3-(4-(1-(5-chloro-1H-indazol-7-yl)-1-hydroxy-2-methylpropan-2-yl)piperidin-1-yl)-3-oxopropanenitrile]
17 | 0.0001 to 10 | 0.0001 to 10 | 0.0001 to 10 | 0.0001 to 10 | CN(C)CC(=O)N1CCC(C(C)(C)C(O)c2cc(Cl)cc3cn[nH]c23)CC1 (centres unmarked) [Compound P-0455, 1-(4-(1-(5-chloro-1H-indazol-7-yl)-1-hydroxy-2-methylpropan-2-yl)piperidin-1-yl)-2-(dimethylamino) ethan-1-one]
18 | 0.0001 to 10 | 0.0001 to 10 | 0.0001 to 10 | 0.0001 to 10 | CN(C)CCC(=O)N1CCC(C(C)(C)C(O)c2cc(Cl)cc3cn[nH]c23)CC1 (centres unmarked) [Compound P-0456, 1-(4-(1-(5-chloro-1H-indazol-7-yl)-1-hydroxy-2-methylpropan-2-yl)piperidin-1-yl)-3-(dimethylamino) propan-1-one]
19 | 0.0001 to 10 | 0.0001 to 10 | 0.0001 to 10 | 0.0001 to 10 | CC1(C(=O)N2CCC(C(C)(C)C(O)c3cc(Cl)cc4cn[nH]c34)CC2)CC1 (centres unmarked) [Compound P-0457, (4-(1-(5-chloro-1H-indazol-7-yl)-1-hydroxy-2-methylpropan-2-yl)piperidin-1-yl)(1-methylcyclopropyl) methanone]
20 | 0.0001 to 10 | 0.0001 to 10 | 0.0001 to 10 | 0.0001 to 10 | CC(C)(C1CCN(C(=O)C2CCOCC2)CC1)C(O)c1cc(Cl)cc2cn[nH]c12 (centres unmarked) [Compound P-0458, (4-(1-(5-chloro-1H-indazol-7-yl)-1-hydroxy-2-methylpropan-2-yl)piperidin-1-yl)(tetrahydro-2H-pyran-4-yl)methanone]
21 | 0.0001 to 10 | 0.0001 to 10 | 0.0001 to 10 | 0.0001 to 10 | CC(C)(C1CCN(C(=O)CC(F)(F)F)CC1)C(O)c1cc(Cl)cc2cn[nH]c12 (centres unmarked) [Compound P-0459, 1-(4-(1-(5-chloro-1H-indazol-7-yl)-1-hydroxy-2-methylpropan-2-yl)piperidin-1-yl)-3,3,3-trifluoropropan-1-one]
22 | 0.0001 to 10 | 0.0001 to 10 | 0.0001 to 10 | 0.0001 to 10 | CCCC(=O)N1CCC(C(C)(C)C(O)c2cc(Cl)cc3cn[nH]c23)CC1 (centres unmarked) [Compound P-0460, 1-(4-(1-(5-chloro-1H-indazol-7-yl)-1-hydroxy-2-methylpropan-2-yl)piperidin-1-yl)butan-1-one]
23 | 0.0001 to 10 | 0.0001 to 10 | 0.0001 to 10 | 0.0001 to 10 | CC(C)(C1CCN(C(=O)CO)CC1)C(O)c1cc(Cl)cc2cn[nH]c12 (centres unmarked) [Compound P-0461, 1-(4-(1-(5-chloro-1H-indazol-7-yl)-1-hydroxy-2-methylpropan-2-yl)piperidin-1-yl)-2-hydroxyethan-1-one]
